Measured values: patent publication US9388147B2 (Receptos, Inc., priority 2009, dated 2016)
Where a name gives a salt, the structure may show the parent alone.

Key:
[1] = Determination of absolute oral bioavailability in rats; assay type: in vivo, Sprague-Dawley rat; settings: non-fasted female Sprague-Dawley rats, oral solution 0.3 mg/kg (85), 2 mg/kg (49, 50), iv 0.3 mg/kg (49, 50), 0.8 mg/kg racemic 85/86
Protocol: All pharmacokinetic studies were conducted in non-fasted female Sprague-Dawely rats (Simonsen Laboratories or Harlan Laboratories). Rats were housed in an ALAAC accredited facility and the research was approved by the facilities Institutional Animal Care and Use Committee (IACUC). The animals were acclimated to the laboratory for at least 48 h prior to initiation of experiments.
Compounds were formulated in 5% DMSO/5% Tween20 and 90% purified water (intravenous infusion) or 5% DMSO/5% Tween20 and 90% 0.1N HCL (oral gavage). The concentration of the dosing solutions was verified by HPLC-UV. For intravenous dosing, compounds were administered by an infusion pump into the jugular vein over one minute to manually restrained animals (n=4 rats/compound). The intravenous doses were 0.8 for a 1:1 mixture (racemic) of 85 and 86, and 0.3 and 0.3 mg/kg for compounds 49 and 50, respectively. Oral dosing was by gavage using a standard stainless steel gavage needle (n=2-4 rats/compound). The oral solution doses were 0.3, 2 and 2 mg/kg for compounds 85, 49 and 50, respectively. For both routes of administration, blood was collected at eight time-points after dosing with the final sample drawn 24 h post dose. Aliquots of the blood samples were transferred to polypropylene 96-well plate and frozen at −20° C. until analysis. […]
Concentrations in the rat pharmacokinetic samples were determined using a standardized HPLC-LC/MS/MS method relative to the eight point standard curve. […] Collision energies used to generate daughter ions ranged between 29 and 39 V. Peak area ratios obtained from MRM of the mass transitions specific for each compound were used for quantification. The limit of quantification of the method was typically 5 nM. Data were collected and analyzed using Analyst software version 1.4.2.
Blood concentration versus time data were analyzed using non-compartmental methods (WinNonlin version 5.2; model 200 for oral dosing and model 202 for intravenous infusion). Absolute oral bioavailability (%) was calculated using the following expression: (Oral AUC×IV Dose)/(IV AUC×Oral Dose)×100. […]

S1P1 R120A/E121A = biological target: T1, S1P1 R120A/E121A (Homo sapiens, UniProt P21453, E121A/R120A); experiment: Phosphorylated-ERK1/2 In Cell Western, S1P1 R120A/E121A mutant in CHOK1 cells; assay type: cell-based
T1 construct: expressed in transfected cells; host or cells: CHOK1
Protocol: A. Quick-change mutagenesis with PfuTurbo DNA polymerase (Stratagene) was conducted using S1P1/pcDNA3.1 (Missouri S&T cDNA Resource Centre) as the template. Primers were as follows: […]
PCR conditions were 15 cycles with the following parameters: 95° C. 30 sec, 58° C. 30 sec, 68° C. for 60 sec. All constructs were sequence verified.
(§1) CHOK1 cells were transfected using Fugene (Roche). Stably expressing mixed pools were selected with 2 mg/ml G418. Expression of functional S1P1/EDG1 receptor was confirmed by cell surface FACS with a S1P1 antibody (R&D Systems, clone 218713). Stable pools were seeded at 40,000 cells/well in a clear bottom 96-well tray, and incubated at 37° C. in 5% CO2 for 18 hrs. Cells were serum-starved in FreeStyle 293 medium (Invitrogen) for 4-6 h, then incubated for 5 min with a dose response of compound, in duplicate. Cells were fixed with 4% paraformaldehyde for 20 min, permeabilized with 0.1% Triton X-100 in PBS (4×5 min washes) and blocked for 1 h in Odyssey Blocking Buffer (LI-COR). All incubations were at room temperature. Cells were incubated for 18 h at 4° C. in Rabbit anti-Phospho-ERK1/2 (Cell Signaling #4377) and Mouse anti-ERK1/2 (Cell Signaling #9107) both diluted 1:800 in Odyssey Blocking Buffer. Plates were washed with 0.1% Tween-20 in PBS and then incubated with Odyssey Blocking Buffer containing IRDye 680-labeled goat anti-rabbit antibody (#926-32221; diluted 1/500) and IRDye 800CW-labeled goat anti-mouse antibody (#926-32210; diluted 1/1000). Plates were washed with 0.1% Tween-20 in PBS, all liquid was removed from the wells and the plates were scanned using a LICOR Odyssey scanner. The phospho-ERK1/2 signal was normalized to the ERK1/2 signal. Data was analyzed by non-linear regression using GraphPad Prism to determine the EC50 of binding.

S1P1/EDG1 = S1P1/EDG1 (Homo sapiens, UniProt P21453); experiment: Phosphorylated-ERK1/2 In Cell Western, wild type S1P1 in CHOK1 cells; assay type: cell-based
Protocol: as §1, with “The phospho-ERK1/2 signal was normalized to the ERK1/2 signal.” left out

TNBS induced colitis = experiment: TNBS Crohn's colitis model in rats; assay type: in vivo, Sprague-Dawley rat; settings: 1 mg/kg oral daily for six days, 31% in the diseased rats
Protocol: Male Sprague-Dawley rats (180-200 g) were acclimatized for seven days and then assigned to 8 rats per group so that each group had approximately the same mean weight. Twenty-four hours prior to disease initiation, rats are deprived of food. Rats were anaesthetized and weighed, then 80 mg/kg TNBS solution (50% TNBS: 50% 200 proof ethanol) was instilled into colon via a 20 g feeding needle inserted into the anus. The rats were maintained in head down position until recovery from anesthesia. Daily oral dosing was initiated 2 h post TNBS-instillation for six days. Prednisolone served as a positive control and was administered orally daily at 10 mg/kg. Body weights were monitored daily and 24 h after the last dose, all groups are terminated. The colon was removed, flushed of fecal matter and examined for gross changes including strictures, adhesions and ulcers. The colon length, weight of the distal 2 cm, and wall thickness was recorded.

T1 sequence (P21453 whole entry R120A/E121A): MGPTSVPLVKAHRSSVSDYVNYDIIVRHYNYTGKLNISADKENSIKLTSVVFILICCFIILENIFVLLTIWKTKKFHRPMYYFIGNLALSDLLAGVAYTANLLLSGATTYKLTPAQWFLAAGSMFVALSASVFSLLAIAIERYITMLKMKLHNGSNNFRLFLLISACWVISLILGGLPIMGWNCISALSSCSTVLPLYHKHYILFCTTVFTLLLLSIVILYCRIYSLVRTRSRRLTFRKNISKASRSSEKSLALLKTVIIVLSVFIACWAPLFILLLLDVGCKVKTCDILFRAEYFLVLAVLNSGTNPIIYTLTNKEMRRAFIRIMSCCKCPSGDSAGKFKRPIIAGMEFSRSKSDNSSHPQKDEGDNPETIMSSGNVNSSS
Sequence of S1P1/EDG1 (P21453 whole entry): as the sequence (P21453 whole entry R120A/E121A) above, with A120R, A121E counted along it

Compound	bioavailability ([1]; rat, whole blood) [%]	Effect of mutation on binding of compound (in words) (S1P1 R120A/E121A; S1P1 R120A/E121A)	Fold change in EC50 compared to wild type S1P1 (S1P1 R120A/E121A; S1P1 variant R120A/E121A, phospho-ERK1/2)	Phosphorylation of ERK1/2 by S1P1 agonist (in words) (S1P1/EDG1)	Rat - Oral bioavailability Solution [1] [%]	TNBS induced colon shortening (TNBS induced colitis) [%]
CC(C)Oc1ccc(-c2nc(-c3cccc4c3CC[C@H]4N)no2)cc1C#N [Compound 49, (R)-5-(3-(1-amino-2,3-dihydro-1H-inden-4-yl)-1,2,4-oxadiazol-5-yl)-2-isopropoxy-benzonitrile hydrochloride]	93	–	–	–	–	–
CC(C)Oc1ccc(-c2nc(-c3cccc4c3CC[C@@H]4N)no2)cc1C#N [Compound 50, (S)-5-(3-(1-amino-2,3-dihydro-1H-inden-4-yl)-1,2,4-oxadiazol-5-yl)-2-isopropoxy-benzonitrile]	–	has no influence on the binding	2	induce phosphorylation of ERK1/2	91	–
CC(C)Oc1ccc(-c2nc(-c3cccc4c3CC[C@H]4NCCO)no2)cc1C#N [Compound 85, (R)-5-(3-(1-(2-hydroxyethylamino)-2,3-dihydro-1H-inden-4-yl)-1,2,4-oxadiazol-5-yl)-2-isopropoxybenzonitrile]	–	–	–	–	69	15
